How the values were obtained:
[1] = Physicochemical properties: solubility in solvents
[2] = test system: MPTP-induced Parkinsonian mice; assay: MPTP-induced Parkinsonian mouse rota-rod experiment; type: in vivo, C57BL/6 male mice; details: 2 mg/kg by gavage for 12 days before MPTP (20 mg/kg i.p. x4); tested 4 h, 24 h, 48 h, 72 h after modeling; FIG. 2
Text: Experimental materials: 10-week-old C57BL/6 male mice (Nanjing Qinglongshan Farm), rota-rod treadmill (Beijing Zhongshi Technology), levodopa and MPTP (Sigma), test drug 4-trifluoromethyl-cinnamoyl-4-fluoro-L-phenylalanine prepared in Example 1 (Compound 2 shown), and test drug 4-hydroxy-3-methoxycinnamoyl-L-tyrosine (Compound 1 shown).
Experimental groups: Mice were randomly divided into 5 groups, 10 mice in each group: a blank group, a model group, a 4-hydroxy-3-methoxycinnamoyl-L-tyrosine (Compound 1 shown, 2 mg/kg) group, a 4-trifluoromethyl-cinnamoyl-4-fluoro-L-phenylalanine (Compound 2 shown, 2 mg/kg) group and a levodopa (15 mg/kg) group. Pre-dosing by gavage was carried out for 12 consecutive days. The blank group and the model group were given equal doses of PBS, and modeling was performed on the 13th day. The model group and the drug group were intraperitoneally injected with MPTP (20 mg/kg), once every 2 h, for 4 consecutive injections. After modeling, behavioral tests were carried out. The behavioral performance of mice was tested with a YLS-4C mouse rota-rod treadmill at 4 h, 24 h, 48 h, and 72 h after MPTP modeling. The time from the start of rotation of the rota-rod to the time leaving the rota-rod of the test mice was taken as the latency. The test time was 180 s, and each mouse was tested 3 times to obtain an average value. […]

[3] = test system: MCAO ischemia-reperfusion rats; assay: Rat ischemia-reperfusion (MCAO) in-vivo model with TTC staining; design: species or system Male SD rats; details: 2 mg/kg by gavage daily, FIG. 3
Text: Experimental materials: Male SD rats, weighing 250-300 g, provided by the Model Animal Research Center of Nanjing University and raised in the Experimental Animal Center of China Pharmaceutical University; triphenyl tetrazolium chloride (TTC) and butyphthalide purchased from Sigma; test drug 4-trifluoromethyl-cinnamoyl-4-fluoro-L-phenylalanine prepared in Example 1 (Compound 2 shown), and test drug 4-hydroxy-3-methoxycinnamoyl-L-tyrosine (Compound 1 shown).
Experimental method: The rats were randomly divided into 5 groups, i.e., a blank group, a model group (MCAO group), an MCAO+4-hydroxy-3-methoxycinnamoyl-L-tyrosine (Compound 1 shown, 2 mg/kg) group, an MCAO+4-trifluoromethyl-cinnamoyl-4-fluoro-L-phenylalanine (Compound 2 shown, 2 mg/kg) group and an MCAO+positive drug butyphthalide (5 mg/kg) group. After successful modeling, administration of different doses of compounds by gavage was carried out every day for 15 consecutive days. After the administration, brains were harvested, subjected to TTC staining, and photographed and recorded.
The effect is better than that of the positive drug and 4-hydroxy-3-methoxycinnamoyl-L-tyrosine (Compound 1 shown).

[4] = target: T1, iNOS (Mus musculus, UniProt P29477); assay: In vitro iNOS inhibitory effect (iNOS activity detection kit) in LPS-stimulated BV-2 cells; type: cell-based; details: compound 0.01-10 μM added 4 hours before LPS 500 ng/mL for 24 hours, FIG. 1, read-out: iNOS inhibition IC50
T1 sequence (P29477 1-1144): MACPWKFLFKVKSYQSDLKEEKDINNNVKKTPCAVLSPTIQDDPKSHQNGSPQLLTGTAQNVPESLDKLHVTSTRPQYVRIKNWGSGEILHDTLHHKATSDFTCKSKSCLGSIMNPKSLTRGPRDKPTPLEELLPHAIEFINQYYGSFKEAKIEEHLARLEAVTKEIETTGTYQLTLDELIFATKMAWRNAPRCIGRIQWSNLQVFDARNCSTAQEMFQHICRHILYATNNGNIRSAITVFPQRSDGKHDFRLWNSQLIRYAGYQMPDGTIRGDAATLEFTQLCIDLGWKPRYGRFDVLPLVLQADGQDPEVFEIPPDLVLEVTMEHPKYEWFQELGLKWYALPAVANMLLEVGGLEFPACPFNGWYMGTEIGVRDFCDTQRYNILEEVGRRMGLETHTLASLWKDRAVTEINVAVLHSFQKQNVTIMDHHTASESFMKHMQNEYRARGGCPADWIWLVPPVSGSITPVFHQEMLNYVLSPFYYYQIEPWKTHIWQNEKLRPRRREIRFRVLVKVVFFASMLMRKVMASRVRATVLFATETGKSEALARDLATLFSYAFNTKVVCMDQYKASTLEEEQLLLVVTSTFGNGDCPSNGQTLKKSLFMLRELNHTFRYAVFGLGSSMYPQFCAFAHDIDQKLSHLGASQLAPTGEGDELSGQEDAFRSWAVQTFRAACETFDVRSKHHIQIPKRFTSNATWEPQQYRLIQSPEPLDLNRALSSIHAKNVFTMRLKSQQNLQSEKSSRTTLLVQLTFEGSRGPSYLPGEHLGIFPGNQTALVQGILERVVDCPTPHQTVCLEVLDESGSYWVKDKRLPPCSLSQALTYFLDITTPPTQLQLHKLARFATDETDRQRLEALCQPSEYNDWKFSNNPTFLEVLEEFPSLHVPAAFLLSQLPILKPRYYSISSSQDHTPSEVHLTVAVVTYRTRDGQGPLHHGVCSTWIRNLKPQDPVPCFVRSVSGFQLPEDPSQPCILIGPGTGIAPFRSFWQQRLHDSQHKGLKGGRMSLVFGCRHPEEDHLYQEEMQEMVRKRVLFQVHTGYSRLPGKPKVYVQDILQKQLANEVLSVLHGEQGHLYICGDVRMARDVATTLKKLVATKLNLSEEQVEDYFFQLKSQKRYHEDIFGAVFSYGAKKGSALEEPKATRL
Method: Experimental materials: BV-2 cells (purchased from Shanghai Cell Bank, Chinese Academy of Sciences), DMEM cell culture fluid (Sigma), fetal bovine serum (Gibico), 96-well cell culture plate (Corning), DMSO (Sigma), LPS (Sigma), iNOS activity detection kit (Beyotime), test drug 4-trifluoromethyl-cinnamoyl-4-fluoro-L-phenylalanine prepared in Example 1, and microplate reader.
Then according to the group, the drug or blank culture fluid was added to the corresponding group for culture for 4 hours. Finally, except the blank group, each group was stimulated with LPS with a final concentration of 500 ng/mL for 24 hours. The iNOS activity assay was performed according to the requirements of the iNOS detection kit.

O=C(/C=C/c1ccc(C(F)(F)F)cc1)N[C@@H](Cc1ccc(F)cc1)C(=O)O [Compound 2, 4-trifluoromethyl-cinnamoyl-4-fluoro-L-phenylalanine]
solubility ([1]; dichloromethane): soluble
solubility ([1]; methanol, acetone, ethyl acetate): easily soluble
solubility ([1]; petroleum ether, water): insoluble
dyskinesia of the Parkinsonian mice (rota-rod) [2]: effectively alleviate the dyskinesia
running time of the Parkinsonian mice (rota-rod latency) [2]: increase the running time
size of cerebral infarction caused by ischemia reperfusion (TTC staining) [3]: effectively reduce the increase in the size of cerebral infarction
IC50 [4]: 0.11 µM

— US12723018B2, “Cinnamoyl amino acid compound and use thereof” (CHINA PHARMACEUTICAL UNIVERSITY, priority 2020, dated 2026)
